One data set deals with MDA-MB-231 (ER−). Nature of the data set: MTT growth inhibition assay, MDA-MB-231 breast cancer cells. It is filed as cell-based. On the procedure:
(§1) Compounds of the invention were tested for their ability to inhibit growth in two breast cancer cell lines, MCF-7 (ER+) and MDA-MB-231 (ER−).
(§2) The growth inhibition assays were conducted using routine methods. Briefly, the cells were seeded in 24-well plates at a density of 2000 cells per well in 200 μL of […] growth medium. To each well was added 10 μL of DMSO containing the dissolved test compound; final DMSO concentration in each well was not more than 0.5%. Each test compound was assayed at concentrations of 0.4, 2, 10, and 50 μM. The plates were incubated for eight days, with the media and test solutions replaced every third day. On Day 8, the viable cells were measured by the MTT assay, as described in Mosmann et al. (1983), “Rapid Colorimetric Assay for Cellular Growth and Survival: Application to Proliferation and Cytotoxicity,” J. Immunol. Method. 65:55–63. The optical density at 575 nm of each test well was measured and compared to that for control wells, and the data used to calculate the percentage of growth inhibition at different concentrations. The IC50 value (the concentration of growth inhibitor that results in 50% growth inhibition of the cells in culture relative to control cells not exposed to any growth inhibitor) was determined by plotting dose-response curves.
(§3) The calculated IC50 values are set forth in Table 1, with the results representing the average of at least two experiments conducted for each compound at each of the four concentrations.
(§4) The foregoing procedures were repeated with additional compounds of the invention to evaluate the their ability to inhibit growth in MCF-7 (ER+) and MDA-MB-231 (ER−).

Another data set concerns MCF-7 (ER+). In words: MTT growth inhibition assay, MCF-7 breast cancer cells. It is filed as cell-based. Here is the method: as §1, §2, §3, §4
A short description of the next data set: in vitro. Particulars: human, Caco-2, pH 7.4. The source says:
(§5) The Caco-2 human colon adenocarcinoma cell line has become accepted as a predictive model for human intestinal absorption. […] The transport is reported as a permeability coefficient, P(app), which is compared to those of the known standards.

In data set [1] the test system is human lung tumor cells (A427). In words: Anchorage-independent growth inhibition assay (colony formation in soft agar). It is filed as cell-based. The settings on record: for Expected Colonies: A427 cells, (cells plated)(Surviving Fraction)(Frequency). Here is the method:
(§6) An anchorage-independent growth inhibition assay was performed as described in Korytynski, et al. (1996) “The development of an anchorage-independence assay using human lung tumor cells to screen potential chemopreventive agents,” Anticancer Res. 16, 1091–1094; and Sharma, et al. (1997) “The anchorage-independent assay as a screening tool to identify potential chemopreventive agents,” Methods Cell Sci. 19, 9–12. The assay measures the inhibition of colony formation of human lung tumor cells (A427) cells grown in soft agar. In this assay, A427 cells were grown in the presence of the test agent, SR 13196, EGCG or 13-cis-RA Control samples were tested using an equivalent volume of DMSO alone. A concurrent assay for cell survival was also performed.
(§7) Thus, SR 13196 inhibits colony formation of A427 cells in vitro, as well as their survival, and in a dose-dependent manner.

Another data set concerns MCF-7 cells. Nature of the data set: Cell cycle studies in MCF-7 cells. Particulars: 10 μM. It is filed as cell-based. The source says: To establish that the analogs of EGCG also act via the same mechanisms as EGCG itself, the active analog SR 13196 in cell cycle studies in MCF-7 cells was examined.
The next data set has as its system A427 cells. In words: Concurrent assay for cell survival. Particulars: highest concentration tested (25 μM). It is filed as cell-based, human. On the procedure:
as §6, §7

The conditions of data set [2]: standards of known oral bioavailability; cited from earlier work.
For data set [3], the system named is Caco-2 human colon adenocarcinoma cell line. In words: Caco-2 intestinal permeability model. The settings on record: for Papp: Caco-2, pH 7.4.
Excerpt: as §5
On the technique in general: Passage across Caco-2 layers is used to estimate intestinal permeability.

Setting [4] is: Homo sapiens, MDA-MB-231, 192 h, Table 1, 8 days.
The mark [5] stands for this setting: Homo sapiens, MCF7, 192 h, Table 1, 8 days.
Setting [6] is: Table 2 (repeat run with additional compounds), 8 days.
Where [7] appears, read: Homo sapiens, MDA-MB-231, 192 h, Table 2 (repeat run with additional compounds), 8 days.
The mark [8] stands for this setting: Homo sapiens, MCF7, 192 h, Table 2 (repeat run with additional compounds), 8 days.

In the case of `COc1cc([C@H]2Oc3cc(O)cc(O)c3C[C@H]2OC(=O)c2cc(C)c(O)c(C)c2)cc(OC)c1OC` (relative stereo) [SR 13196], the IC50 in the data set with MDA-MB-231 (ER−) (setting [4]) is 19.6 µM; with MCF-7 (ER+) (setting [5]) it was 8.39 µM. The Papp at 100 μM in “in vitro” is 6.82 ± 0.83 ×10⁻⁶ cm/s. In addition, the “inhibition of colony formation, in words” value in data set [1] (A427 cells in soft agar) was “inhibited colony formation to a much greater extent than either EGCG or 13-cis-RA”. The “Expected Colonies” value in data set [1] (1.56 μM) is 277; in data set [1] (3.12 μM) it was 160; in data set [1] (6.25 μM) it was 67; in data set [1] (12.5 μM), 52. In data set [1] (Homo sapiens, A-427, A427 cells in soft agar, 1.56 μM), this molecule came in with an inhibition at 1.56 µM of 4%. This molecule showed an inhibition at 3.12 µM in data set [1] (Homo sapiens, A-427, A427 cells in soft agar, 3.12 μM) of 32%. Besides, the inhibition at 6.25 µM in data set [1] (Homo sapiens, A-427, A427 cells in soft agar, 6.25 μM) was 43%. Also, the inhibition at 12.5 µM in data set [1] (Homo sapiens, A-427, A427 cells in soft agar, 12.5 μM) is 46%. The molecule further returned an inhibition at 25 µM in data set [1] (Homo sapiens, A-427, A427 cells in soft agar, 25 μM) of 81%. Further, in the data set on MCF-7 cells, the “effect on cell cycle” value is listed as “arrests the cell cycle in G1”.
Consider `CC1=C(/C=C/C(C)=C/C=C/C(C)=C\C(=O)O)C(C)(C)CCC1` [Compound 13-cis-RA, reference compound], for which the surviving cells in the data set on A427 cells was found to be 68%. Moreover, the “Expected Colonies” value in data set [1] (1.56 μM) turned out to be 332; in data set [1] (3.12 μM) it was 320; in data set [1] (6.25 μM), 289; in data set [1] (12.5 μM), 265; in data set [1] (25 μM) it was 254.
With `CN1C(=O)CN=C(c2ccccc2)c2cc(Cl)ccc21` [Diazepam, diazepam], the “% Absorbed (literature value)” value in data set [2] is 100%.
`O=C(O[C@@H]1Cc2c(O)cc(O)cc2O[C@@H]1c1cc(O)c(O)c(O)c1)c1cc(O)c(O)c(O)c1` [EGCG, (−)-epigallocatechin-3-gallate, reference compound]: the IC50 with MDA-MB-231 (ER−) (setting [6]) worked out at 36.9 µM; in the data set on MCF-7 (ER+) (setting [6]) it was 37.1 µM. Besides, in data set [3] (Caco-2 model, summary of the experiments), the “permeability coefficient (Papp), in words” value is recorded as “low permeability coefficient”. Further, the “Expected Colonies” value was determined as 386 in data set [1] (1.56 μM); 382 in data set [1] (3.12 μM); 378 in data set [1] (6.25 μM); 331 in data set [1] (12.5 μM); 191 in data set [1] (25 μM). The “effect on cell cycle” value with MCF-7 cells is “arrests the cell cycle in G1”.
Take `Nc1nc(O)c2ncn(COC(CO)CO)c2n1` [Ganciclovir, ganciclovir]: in data set [2], the “% Absorbed (literature value)” value is 3%.
Consider `COc1cc(C2Oc3cc(O)cc(O)c3C[C@H]2OC(=O)c2cc(O)c(O)c(O)c2)cc(OC)c1OC` (stereo partly drawn) [SR 13194, trans-5,7-DIHYDROXY-2-(3,4,5-TRIMETHOXY-PHENYL)-3,4-DIHYDRO-2H-CHROMAN-3-YL, 3,4,5-TRIHYDROXY-BENZOIC ACID ESTER], for which the IC50 in the data set with MDA-MB-231 (ER−) (setting [4]) and with MCF-7 (ER+) (setting [5]) was > 100 µM throughout.
For the molecule `COc1cc([C@H]2Oc3cc(O)cc(O)c3C[C@H]2OC(=O)c2cc(O)c(O)c(O)c2)cc(OC)c1OC` [SR 13195, cis-5,7-DIHYDROXY-2-(3,4,5-TRIMETHOXY-PHENYL)-3,4-DIHYDRO-2H-CHROMAN-3-YL, 3,4,5-TRIHYDROXY-BENZOIC ACID ESTER], the IC50 in the data set with MDA-MB-231 (ER−) (setting [4]) and in the data set with MCF-7 (ER+) (setting [5]) was > 100 µM throughout.
On to `COc1cc(OC)c2c(c1)OC(c1cc(O)c(O)c(O)c1)[C@H](OC(=O)c1cc(O)c(O)c(O)c1)C2` (stereo partly drawn) [SR 13198, trans-5,7-DIMETHOXY-2-(3,4,5-TRIHYDROXY-PHENYL)-3,4-DIHYDRO-2H-CHROMAN-3-YL, 3,4,5-TRIHYDROXY-BENZOIC ACID ESTER], for which the IC50 with MDA-MB-231 (ER−) (setting [7]) came to 35.9 µM; in the data set with MCF-7 (ER+) (setting [8]), 42.1 µM.
`COc1cc(OC)c2c(c1)O[C@H](c1cc(O)c(O)c(O)c1)[C@H](OC(=O)c1cc(C)c(O)c(C)c1)C2` [SR 13200]: the half-inhibitory concentration (IC50) in the data set on MDA-MB-231 (ER−) (setting [7]) was 22.6 µM; in the data set on MCF-7 (ER+) (setting [8]) it was 22.9 µM.
On to `Cc1cc(C)c2c(c1)OC(c1cc(O)c(O)c(O)c1)[C@H](OC(=O)c1cc(O)c(O)c(O)c1)C2` (stereo partly drawn) [SR 13911], for which the half-maximal inhibitory concentration (IC50) with MDA-MB-231 (ER−) (setting [7]) is 25.7 µM; in the data set with MCF-7 (ER+) (setting [8]), 23.6 µM. Besides, in “in vitro”, the Papp at 100 μM worked out at 1.42 ± 1.6 ×10⁻⁶ cm/s.
In the case of `Cc1cc(C)c2c(c1)O[C@H](c1cc(O)c(O)c(O)c1)[C@H](OC(=O)c1cc(O)c(O)c(O)c1)C2` [SR 13912], the figures for the IC50 in the data set with MDA-MB-231 (ER−) (setting [7]) and with MCF-7 (ER+) (setting [8]) were 53.7 µM and 21.8 µM, respectively.
Take `Cc1cc(C)c2c(c1)O[C@H](c1cc(O)c(O)c(O)c1)[C@H](OC(=O)c1cc(C)c(O)c(C)c1)C2` [SR 13913]: in the data set on MCF-7 (ER+) (setting [8]), the IC50 was determined as 17.2 µM. Also, the Papp at 100 μM in the data set “in vitro” is < 0.06 ×10⁻⁶ cm/s.
For `COc1cc([C@H]2Oc3cc(O)cc(O)c3C[C@H]2OC(=O)c2cc(O)c(O)c(O)c2)cc(OC)c1O` [SR 13915], the IC50 with MDA-MB-231 (ER−) (setting [6]) and in the data set with MCF-7 (ER+) (setting [6]) was > 100 µM each time. This molecule also gave a Papp in data set [3] of 5.17 ± 0.49 ×10⁻⁶ cm/s.
On to `Cc1cc(C(=O)O[C@@H]2Cc3c(O)cc(O)cc3O[C@@H]2c2cc(C)c(O)c(C)c2)cc(C)c1O` [SR 13916], for which the IC50 in the data set on MDA-MB-231 (ER−) (setting [6]) turned out to be 10.2 µM; with MCF-7 (ER+) (setting [6]), 6.61 µM.
Regarding `Cc1cc([C@H]2Oc3cc(O)cc(O)c3CC2OC(=O)c2cc(O)c(O)c(O)c2)cc(C)c1O` (stereo partly drawn) [SR 13917], the IC50 amounted to 2.98 µM with MDA-MB-231 (ER−) (setting [6]) and 6.12 µM in the data set on MCF-7 (ER+) (setting [6]).
Take `Cc1cc([C@H]2Oc3cc(O)cc(O)c3C[C@H]2OC(=O)c2cc(O)c(O)c(O)c2)cc(C)c1O` [SR 13918]: the IC50 in the data set with MDA-MB-231 (ER−) (setting [6]) was 46.8 µM; with MCF-7 (ER+) (setting [6]) it was > 100 µM.
For the molecule `COc1cc(C(=O)O[C@@H]2Cc3c(C)cc(C)cc3O[C@@H]2c2cc(O)c(O)c(O)c2)cc(OC)c1OC` [SR 13919], the half-inhibitory concentration (IC50) turned out to be 7.76 µM in the data set with MDA-MB-231 (ER−) (setting [6]) and 8.35 µM in the data set with MCF-7 (ER+) (setting [6]). Besides, in data set [3], the Papp is < 0.06 ×10⁻⁶ cm/s.
Regarding `COc1cc([C@H]2Oc3cc(O)cc(O)c3C[C@H]2OC(=O)c2cc(C)c(O)c(C)c2)cc(OC)c1O` [SR 13920], the values for the IC50 in the data set on MDA-MB-231 (ER−) (setting [6]) and with MCF-7 (ER+) (setting [6]) were 9.97 µM and 33.1 µM, respectively.

The IC50 is the concentration that gives 50% inhibition. Broadly, the Papp is a coefficient for how fast a substance crosses the barrier. A high value points to fast passage. Usually inhibition stands for the relative decrease from the control value, in per cent. Lower therefore signals a weak effect.

Values taken from patent US7109236B2, “Analogs of green tea polyphenols as chemotherapeutic and chemopreventive agents” (SRI International, priority 2002, dated 2006).
